From patent publication US20250034186A1, “ANTIVIRAL COMPOUNDS” (priority 2020, published 2025)

Tests used:
[1] = system: RSV strain A2; assay: RSV HEp-2 EC50, infectious cytopathic cell protection assay; type: cell-based; settings: human respiratory syncytial virus, 96 h; RSV A2 in HEp-2 cells, 4 days, Cell TiterGlo
Description: Antiviral activity against RSV is determined using an infectious cytopathic cell protection assay in HEp-2 cells. In this assay, compounds inhibiting viral infection and/or replication produce a cytoprotective effect against the virus-induced cell killing that can be quantified using a cell viability reagent. The techniques used here are novel adaptations of methods described in published literature (Chapman et al., Antimicrob Agents Chemother. 2007, 51(9):3346-53.).
HEp-2 cells are obtained from ATCC (Manassas, VI) and maintained in MEM media supplemented with 10% fetal bovine serum and penicillin/streptomycin. Cells are passaged twice a week and kept at subconfluent stage. Commercial stock of RSV strain A2 (Advanced Biotechnologies, Columbia, MD) is titered before compound testing to determine the appropriate dilution of the virus stock that generates desirable cytopathic effect in HEp-2 cells.
For antiviral tests, HEp-2 cells are grown in large cell culture flasks to near confluency but not fully so. The compounds to be tested are prediluted in DMSO in 384-well compound dilution plates, either in an 8 or 40 sample per plate standardized dose response format. 3-fold serial dilution increments of each test compound are prepared in the plates and test samples are transferred via acoustic transfer apparatus (Echo, Labcyte) at 100 nL per well into cell culture assay 384-well plates. Each compound dilution is transferred in single or quadruplicate samples into dry assay plates, which are stored until assay is ready to go. The positive and negative controls are laid out in opposite on ends of the plate in vertical blocks (1 column).
Subsequently, an infectious mixture is prepared using an appropriate dilution of virus stock previously determined by titration with cells at a density of 50,000/mL and 20 μL/well is added to test plates w/compounds via automation (uFlow, Biotek). Each plate includes negative and positive controls (16 replicates each) to create 0% and 100% virus inhibition standards, respectively. Following the infection with RSV, testing plates are incubated for 4 days in a 37° C. cell culture incubator. After the incubation, a cell viability reagent, Cell TiterGlo (Promega, Madison, WI) is added to the assay plates, which are incubated briefly, and a luminescent readout is measured (Envision, Perkin Elmer) in all the assay plates. The RSV-induced cytopathic effect, percentage inhibition, is determined from the levels of remaining cell viability. […] Various potent anti-RSV tool compounds are used as positive controls for antiviral activity.

[2] = system: RSV A2; assay: RSV NHBE EC50, RSV A2 antiviral assay; type: cell-based; settings: human respiratory syncytial virus, 96 h; RSV A2 in NHBE cells, 4 days
Description: Normal human bronchial epithelial (NHBE) cells were purchased from Lonza (Walkersville, MD, Cat #CC-2540) and cultured in Bronchial Epithelial Growth Media (BEGM) (Lonza, Walkersville, MD, Cat #CC-3170). The cells were passaged 1-2 times per week to maintain <80% confluency. The NHBE cells were discarded after 6 passages in culture.
To conduct the RSV A2 antiviral assay, NHBE cells were plated in 96-well plates at a density of 7,500 cells per well in BEGM and allowed to attach overnight at 37° C. Following attachment, 100 μL of cell culture media was removed and 3-fold serially diluted compound was added using a Hewlett-Packard D300 Digital Dispenser. The final concentration of DMSO was normalized to 0.05%. Following compound addition, the NHBE cells were infected by the addition of 100 μL of RSV A2 at a titer of 1×10^4.5 tissue culture infectious doses/mL in BEGM and then incubated at 37° C. for 4 days. The NHBE cells were then allowed to equilibrate to 25° C. and cell viability was determined by removing 100 μL of culture medium and adding 100 μL of Cell-Titer Glo viability reagent. The mixtures were incubated for 10 minutes at 25° C., and the luminescence signal was quantified on an Envision luminescence plate reader.

[3] = system: HRV16; assay: HRV16 HeLa EC50; type: cell-based, human rhinovirus; settings: Human rhinovirus sp., HRV16; H1-HeLa cells, 96 h, 33° C.
Description: H1-HeLa cells, cultured in complete DMEM medium containing 10% heat-inactivated FBS and 1% Penicillin/Streptomycin, were seeded in 96 well plates at 3000 cells/well one day prior to compound dosing and infection. The antiviral activity of each compound was measured in triplicate. Compounds were added directly to the cell cultures in serial 3-fold dilutions using the HP300 digital dispenser (Hewlett Packard, Palo Alto, CA) immediately prior to infection. The plates were transferred to BSL-2 containment and the appropriate dilution of virus stock, previously determined by titration and prepared in cell culture media, was added to test plates containing cells and serially diluted compounds. Each plate included 6 wells of infected untreated cells and 6 wells of uninfected cells that served as 0% and 100% virus inhibition control, respectively. Following the infection, test plates were incubated for 96 h in a tissue culture incubator set to 33° C./5% CO2. Following incubation, the H1-HeLa cells were removed from incubation and allowed to equilibrate to 25° C. Cell viability was determined by removing 100 μL of culture medium and adding 100 μL of Cell-Titer Glo viability reagent. The mixtures were incubated on a shaker for 10 minutes at 25° C., and the luminescence signal was quantified on an Envision luminescence plate reader.

[4] = Stability assay in human hepatic S9 fractions; type: in vitro ADME; settings: 37° C., NADPH and UDPGA, read-out: Hum HepS9 t1/2
Description: (§1) For S9 stability, the compounds were incubated at 2 μM in cynomolgus monkey or human hepatic S9 fractions for up to 90 min at 37° C. in the presence of NADPH and UDPGA (Phase I and Phase II cofactor, Sigma-Aldrich). At desired time points following compound addition, samples were quenched with 9 volumes of an aqueous solution containing internal standard, 50% acetonitrile and 25% methanol. Sample plates were centrifuged at 3000 g for 30 min, and 10 μL of the resulting solution was analyzed by LC-MS/MS. Data (analyte to internal standard peak area ratio) were plotted on a semi log scale and fitted using an exponential fit. The half-life (T1/2) was determined assuming first order kinetics.

[5] = Stability assay in cynomolgus monkey hepatic S9 fractions; type: in vitro ADME; settings: 37° C., NADPH and UDPGA, read-out: Cyno HepS9 t1/2
Description: as §1

[6] = in vitro; type: in vitro ADME; settings: plasma, 37° C., up to 4 h
Description: For plasma stability, the compounds were incubated at 2 μM in cynomolgus monkey or human plasma for up to 4 h at 37° C. At desired time points, an aliquot from the incubation was quenched by addition of 9 volumes of 100% acetonitrile supplemented with internal standard. Following the last collection, samples were centrifuged at 3000 g for 30 min and supernatants were transferred to a new plate containing an equal volume of water for analysis by liquid chromatography coupled to triple quadrupole mass spectrometry (LC-MS/MS). Data (analyte to internal standard peak area ratio) were plotted on a semi log scale and fitted using an exponential fit. The half-life (T1/2) was determined assuming first order kinetics.

## CCC(CC)COC(=O)[C@H](C)N[P@@](=O)(OC[C@@]1(C#N)O[C@@H](c2ccc3c(N)ncnn23)[C@H](O)[C@@H]1O)Oc1ccccc1 (single isomer, unassigned) [Compound 7]
[1]
  EC50: 124 nM
[2]
  EC50: 91 nM
[3]
  EC50: 183 nM
[4]
  half-life at 2 μM: 6 min
[5]
  half-life at 2 μM: 2 min
[6]; cynomolgus monkey, read-out: Cyno Plasma t1/2
  half-life at 2 μM: 2.97 h
[6]; human, read-out: Hum Plasma t1/2
  half-life at 2 μM: 3.88 h
